Results reported in patent US11597703B2, “Caspase inhibitors and methods of use thereof” (Histogen Inc., priority 2019, dated 2023).

Assays:
Jurkat cells = assay: Prevention of Fas-induced apoptosis in Jurkat cells (WST-8); format: cell-based; conditions: Homo sapiens, 10 micromolar, read-out: % Prevention of Fas - induced Jurkat cell apoptosis at 10 micromolar
Experimental: Compounds of the present invention were evaluated in Jurkat cells, a human T-lymphocyte cell line, to evaluate compounds ability to inhibit apoptotic cell death. Jurkat cells, Clone E6-1 (ATCC TIB-152) were grown in culture maintain a cell density between 0.5-2 million cells/mL. Cells were tested for viability and countion with typan blue stain before use. Test compounds were addedd to 96 well plates and Jurkat cells were added at a concentration of approximately 100,000 cells per well and mixed thoroughly by action of pipetting. Plated cells were incubated for 1 hour at 37 degrees C. under an atmosphere of 5% CO2. Anti-Fas antibody was added and mixed by pipet action. Plates were incubated for 20 hours at 37 degrees C. under an atmosphere of 5% CO2. 10 microliters of thawed WST-8 solution was added to each well and incubated for 4 hours. Absorbance was measured at 450 nm and control reading at […] using a SpectraMax ID5 plate reader. Apoptotic cell death is executed by caspases 3, 7 and 6. Compounds that lack activity against these caspases will not prevent the death of Jurkat cells and is a functional test of selectivity for inflammatory over apoptotic caspases.
IC50 values to protect against Fas induced apoptosis and improve survival of Jurkat cells were determined from dose response studies.

Caspase 6 = target: T1, Caspase 6 (Homo sapiens, UniProt P55212); assay: Caspase 6 enzymatic inhibition assay, IC50; format: biochemical; conditions: read-out: Caspase 6 enzyme inhibition IC50
T1 construct: purchased Enzo Biosciences
T1 sequence (P55212 24-179 limits assumed): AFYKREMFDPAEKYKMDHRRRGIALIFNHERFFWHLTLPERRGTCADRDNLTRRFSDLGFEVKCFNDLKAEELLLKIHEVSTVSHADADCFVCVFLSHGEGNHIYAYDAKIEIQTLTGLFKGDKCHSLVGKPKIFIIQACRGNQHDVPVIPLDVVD
T1 sequence (P55212 194-293 limits assumed): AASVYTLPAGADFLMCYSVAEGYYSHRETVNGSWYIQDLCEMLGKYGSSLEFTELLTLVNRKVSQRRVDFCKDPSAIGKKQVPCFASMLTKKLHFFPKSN
Experimental: (§1) Human caspases were purchased from Enzo Biosciences and used according to the manufacturer's instructions. An exemplary caspase assay, for Caspase-1, is provided below:
(§2) Enzymatic assays were conducted for Caspase-3, 6 and 7 activity according to the manufacture's instructions.

Caspase 7 = target: T2, Caspase 7 (Homo sapiens, UniProt P55210); assay: Caspase 7 enzymatic inhibition assay, IC50; format: biochemical; conditions: read-out: Caspase 7 enzyme inhibition IC50
T2 construct: purchased Enzo Biosciences
T2 sequence (P55210 24-198 limits assumed): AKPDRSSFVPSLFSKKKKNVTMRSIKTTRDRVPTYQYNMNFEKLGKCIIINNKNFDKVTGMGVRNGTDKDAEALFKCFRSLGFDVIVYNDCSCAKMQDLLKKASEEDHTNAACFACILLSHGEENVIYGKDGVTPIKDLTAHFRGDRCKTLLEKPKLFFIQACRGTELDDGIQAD
T2 sequence (P55210 207-303 limits assumed): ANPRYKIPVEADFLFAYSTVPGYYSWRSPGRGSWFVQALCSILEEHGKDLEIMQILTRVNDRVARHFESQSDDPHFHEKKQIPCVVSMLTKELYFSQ
Experimental: as §1, §2

Caspase-1 = target: T3, Caspase-1 (Homo sapiens, UniProt P29466); assay: Caspase-1 enzyme inhibition assay (Ac-YVAD-pNA substrate), IC50; format: biochemical
T3 construct: purchased Enzo Biosciences
T3 sequence (P29466 120-297 limits assumed): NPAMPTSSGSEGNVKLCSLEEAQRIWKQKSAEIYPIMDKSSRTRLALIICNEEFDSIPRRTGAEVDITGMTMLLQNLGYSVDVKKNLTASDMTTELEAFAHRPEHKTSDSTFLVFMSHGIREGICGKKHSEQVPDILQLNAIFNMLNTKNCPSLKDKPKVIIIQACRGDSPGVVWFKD
T3 sequence (P29466 317-404 limits assumed): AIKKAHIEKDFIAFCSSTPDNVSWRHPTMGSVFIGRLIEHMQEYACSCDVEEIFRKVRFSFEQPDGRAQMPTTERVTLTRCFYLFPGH
Experimental: as §1
Caspase-1 was diluted to 10 U/μl in assay buffer consisting of 50 mM HEPES, pH 7.4, 100 mM NaCl, 0.1% CHAPS, 1 mM EDTA, 10% glycerol and 10 mM DTT.
45 μl of assay buffer was added into ½ volume microtiter plate. The plate was allowed to equilibrate to assay temperature. 5 μl of Caspase-1 (10 U/μl) was added to each appropriate well. Two 2 blank wells containing assay buffer alone without Caspase-1 were included on the plate.
The reaction was started by the addition of 50 μl Ac-YVAD-pNA substrate, for a final substrate concentration of 200 μM. The reaction was continuously monitored at 405 nm. The data was graphed as OD405 nm vs time, and the slope was determined over the linear portion of the curve. The rates in OD/min were converted to substrate/min using an extinction coefficient for p-nitroaniline of 10,500M-1 cm-1, and were adjusted for pathlength of sample. […]

IL-1β = assay: Inhibition of LPS-stimulated IL-1β in THP-1 cells (ELISA); format: cell-based, human; conditions: Homo sapiens, 10 micromolar, read-out: Percent Inhibition of IL1-β
Experimental: Compounds in the present invention were tested in THP-1 cells, a human monocyte cell line, to assess the inhibition of the inflammatory cytokine IL-1β. THP-1 cells (ATCC TIB-202) were grown in culture and seeded in 96 well plates at a concentration of 200,000 cells per well with a total volume of 150 μL. Plated cells were incubated overnight at 37 degrees C. under an atmosphere of 5% CO2. Media was removed from cells which were washed with PBS. Test compounds were diluted in DMSO stock solution and serially diluted appropriately for initial screening and IC50 determinations. LPS in serum free media (140 μL of […]) was added to each well to stimulate IL-1β production. IL-1β was measured by ELISA assay kit (R&D Systems) per the manufacturers instructions.
IC50 values for the inhibition of IL-1 in THP 1 cells were determined from dose response studies.

Caspase-3 = target: T4, Caspase-3 (Homo sapiens, UniProt P42574); assay: Caspase-3 enzymatic inhibition assay, IC50; format: biochemical; conditions: read-out: Caspase 3 enzyme inhibition IC50
T4 construct: purchased Enzo Biosciences
T4 sequence (P42574 29-175 limits assumed): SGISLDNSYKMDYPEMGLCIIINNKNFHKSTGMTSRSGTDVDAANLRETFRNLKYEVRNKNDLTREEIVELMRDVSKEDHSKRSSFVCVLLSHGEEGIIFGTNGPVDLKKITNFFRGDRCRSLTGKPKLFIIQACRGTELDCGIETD
T4 sequence (P42574 176-277 limits assumed): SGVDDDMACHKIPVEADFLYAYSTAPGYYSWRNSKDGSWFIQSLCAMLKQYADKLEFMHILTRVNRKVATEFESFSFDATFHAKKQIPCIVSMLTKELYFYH
Experimental: as §1, §2

| IC50 (Caspase 6) | IC50 (Caspase 7) | IC50 (Caspase-1) | IC50 (Caspase-3) | SMILES | inhibition at 10 µM (Jurkat cells) | inhibition at 10 µM (IL-1β) |
| --- | --- | --- | --- | --- | --- | --- |
| ≥ 1000 nM | ≥ 1000 nM | 10 to 100 nM | ≥ 1000 nM | C[C@H](NC(=O)C(=O)Nc1c(F)cccc1F)C(=O)N[C@@H](CCOCc1ccsc1)C(=O)COc1c(F)c(F)cc(F)c1F [Example 4, N^1-(2,6-difluorophenyl)-N^2—((S)-1-oxo-1-(((S)-2-oxo-1-(2,3,5,6-tetrafluorophenoxy)-5-(thiophen-3-ylmethoxy)pentan-3-yl)amino)propan-2-yl)oxalamide] | ≤ 10% | 50 to 90% |
| ≥ 1000 nM | ≥ 1000 nM | 100 to 1000 nM | ≥ 1000 nM | COCC[C@H](NC(=O)[C@H](C)NC(=O)C(=O)Nc1c(F)cccc1F)C(=O)COc1c(F)c(F)cc(F)c1F [Example 5, N^1-(2,6-Difluorophenyl)-N^2—((S)-1-(((S)-5-methoxy-2-oxo-1-(2,3,5,6-tetrafluorophenoxy)pentan-3-yl)amino)-1-oxopropan-2-yl)oxalamide] | ≤ 10% | 25 to 50% |
| ≥ 1000 nM | ≥ 1000 nM | 10 to 100 nM | ≥ 1000 nM | C[C@H](NC(=O)C(=O)Nc1c(F)cccc1F)C(=O)N[C@@H](CCOC(=O)Oc1ccccc1)C(=O)COc1c(F)c(F)cc(F)c1F [Example 7, (S)-3-((S)-2-(2-((2,6-Difluorophenyl)amino)-2-oxoacetamido)propanamido)-4-oxo-5-(2,3,5,6-tetrafluorophenoxy)pentyl phenyl carbonate] | ≤ 10% | 50 to 90% |
| ≥ 1000 nM | ≥ 1000 nM | 100 to 1000 nM | ≥ 1000 nM | C[C@H](NC(=O)C(=O)Nc1c(F)cccc1F)C(=O)N[C@@H](CCOC(=O)c1ccccc1)C(=O)COc1c(F)c(F)cc(F)c1F [Example 8, (S)-3-((S)-2-(2-((2,6-Difluorophenyl)amino)-2-oxoacetamido)propanamido)-4-oxo-5-(2,3,5,6-tetrafluorophenoxy)pentyl benzoate] | ≤ 10% | 25 to 50% |
| ≥ 1000 nM | ≥ 1000 nM | ≤ 10 nM | ≥ 1000 nM | O=C(O)CC[C@H](NC(=O)CNC(=O)C(=O)Nc1c(F)cccc1F)C(=O)COc1c(F)c(F)cc(F)c1F [Example 9, (S)-4-(2-(2-((2,6-difluorophenyl)amino)-2-oxoacetamido)acetamido)-5-oxo-6-(2,3,5,6-tetrafluorophenoxy)hexanoic acid] | ≤ 10% | > 90% |
| ≥ 1000 nM | ≥ 1000 nM | ≤ 10 nM | ≥ 1000 nM | C[C@H](NC(=O)C(=O)Nc1c(F)cccc1F)C(=O)N[C@@H](CCC(=O)O)C(=O)COc1cc(C(F)(F)F)cc(C(F)(F)F)c1 [Example 10, (S)-6-(3,5-bis(trifluoromethyl)phenoxy)-4-((S)-2-(2-((2,6-difluorophenyl)amino)-2-oxoacetamido)propanamido)-5-oxohexanoic acid] | ≤ 10% | > 90% |
| ≥ 1000 nM | 100 to 1000 nM | ≤ 10 nM | ≥ 1000 nM | C[C@H](NC(=O)C(=O)Nc1ccccc1C(C)(C)C)C(=O)N[C@@H](CCC(=O)O)C(=O)COc1c(F)c(F)cc(F)c1F [Example 11, (S)-4-((S)-2-(2-((2-(tert-Butyl)phenyl)amino)-2-oxoacetamido)propanamido)-5-oxo-6-(2,3,5,6-tetrafluorophenoxy)hexanoic acid] | ≤ 10% | > 90% |
| ≥ 1000 nM | ≥ 1000 nM | ≤ 10 nM | ≥ 1000 nM | CC(C)(NC(=O)C(=O)Nc1c(F)cccc1F)C(=O)N[C@@H](CCC(=O)O)C(=O)COc1c(F)c(F)cc(F)c1F [Example 12, (S)-4-(2-(2-((2,6-Difluorophenyl)amino)-2-oxoacetamido)-2-methylpropanamido)-5-oxo-6-(2,3,5,6-tetrafluorophenoxy)hexanoic acid] | ≤ 10% | > 90% |
| ≥ 1000 nM | ≥ 1000 nM | 10 to 100 nM | ≥ 1000 nM | C[C@H](NC(=O)C(=O)Nc1c(F)cccc1F)C(=O)N[C@@H](CCCC(=O)O)C(=O)COc1c(F)c(F)cc(F)c1F [Example 13, (S)-5-((S)-2-(2-((2,6-Difluorophenyl)amino)-2-oxoacetamido)propanamido)-6-oxo-7-(2,3,5,6-tetrafluorophenoxy)heptanoic acid] | ≤ 10% | 50 to 90% |
| 100 to 1000 nM | 100 to 1000 nM | ≤ 10 nM | 100 to 1000 nM | O=C(O)CC[C@H](NC(=O)C1(NC(=O)C(=O)Nc2c(F)cccc2F)CCCC1)C(=O)COc1c(F)c(F)cc(F)c1F [Example 14, (S)-4-(1-(2-((2,6-Difluorophenyl)amino)-2-oxoacetamido)cyclopentane-1-carboxamido)-5-oxo-6-(2,3,5,6-tetrafluorophenoxy)hexanoic acid] | ≤ 10% | > 90% |
| ≥ 1000 nM | ≥ 1000 nM | ≤ 10 nM | ≥ 1000 nM | C[C@H](NC(=O)C(=O)Nc1c(F)cccc1F)C(=O)N[C@@H](CCC(=O)O)C(=O)COc1ccnc(C(F)(F)F)n1 [Example 15, (S)-4-((S)-2-(2-((2,6-Difluorophenyl)amino)-2-oxoacetamido)propanamido)-5-oxo-6-((2-(trifluoromethyl)pyrimidin-4-yl)oxy)hexanoic acid] | ≤ 10% | > 90% |
| ≥ 1000 nM | ≥ 1000 nM | ≤ 10 nM | ≥ 1000 nM | O=C(O)CC[C@H](NC(=O)Cn1ccc2ccc(Cl)cc2c1=O)C(=O)COc1c(F)c(F)cc(F)c1F [Example 16, (S)-4-(2-(7-Chloro-1-oxoisoquinolin-2(1H)-yl)acetamido)-5-oxo-6-(2,3,5,6-tetrafluorophenoxy)hexanoic acid] | ≤ 10% | > 90% |
